Source: patent publication US10543185B2, “Method for treating idiopathic pulmonary fibrosis” (The University of Chicago, priority 2015, dated 2020)
“Also recorded” adds a separate entry of the source.

Legend:
[1] = system: patients with idiopathic pulmonary fibrosis (IPF); details: previous reports (Martinez et al., N Engl J Med. 2014); cited from earlier work
[2] = system: patients with idiopathic pulmonary fibrosis (IPF); experiment: Independent replication cohort (INSPIRE trial and University of Chicago): NAC versus no NAC therapy, genotype-stratified; format: in vivo, human; details: for Replication cohort multivariate Cox interaction model coefficient, NAC Therapy term: FVC, DLCO, prednisone use, azathioprine use and study cohort; for Replication cohort multivariate Cox interaction model coefficient, SNP*NAC interaction term: adjusted as in the Table 9 footnote; for Genotype-stratified Composite Endpoint Risk Associated with NAC Therapy, HR: vs no NAC therapy
Source text: The INSPIRE cohort consists of individuals enrolled in the industry-sponsored randomized clinical trial comparing interferon gamma-1b to placebo. […] Clinical and genetic data for patients providing informed consent to genetic testing were used to conduct the analysis. Patients were followed for up to 170 weeks after randomization.
The University of Chicago (UChicago) cohort consists of individuals followed in the UChicago ILD clinic from 2007-2013 who provided informed consent to undergo DNA testing. Patients were followed from time of initial evaluation until death, lung transplantation, loss-to-follow up or time of censoring (Sep. 9, 2013). Vital status was determined using telephone interviews with family members and the social security death index. Patients participating in PANTHER and INSPIRE were removed from the UC cohort.
(§1) To minimize the effects of population stratification, only participants that self-declared a non-Hispanic white ethnicity were included in the analysis. Demographic and clinical information extracted from the datasets included age, gender, race/ethnicity, treatment arm, pulmonary function testing (PFT) including forced vital capacity (FVC) and diffusion capacity for carbon monoxide (DLCO) and outcomes, including death, >10% decline in FVC, hospitalization and lung transplantation.
Hospitalization data were not available for patients in the replication cohort so composite endpoint-free survival was defined as time from trial enrollment (INSPIRE) or blood draw (UChicago) to death, ≥10% FVC decline or transplantation in those not receiving NAC therapy and time from NAC initiation to death, >10% FVC decline or transplantation in those receiving NAC therapy. Because follow-up time was longer for the UChicago compared to INSPIRE cohort, UChicago cohort survival time was censored at 170 weeks to allow for merging of the datasets. All statistical analysis was conducted using Stata (StataCorp. 2011. Release 12. College Station, Tex.).
Based on the findings above, interaction modeling was performed in an independent cohort between NAC therapy and rs3750920 (TOLLIP), rs5743894 (TOLLIP) and rs35705950 (MUC5B). Of the 771 non-Hispanic white individuals enrolled in the INSPIRE trial, DNA was available for 314. In the UChicago cohort, of 151 non-Hispanic white individuals with sequencing data, 91 had longitudinal PFT data and were included in the analysis. A summary of baseline demographic and clinical characteristics, along with genotype counts for the INSPIRE, UChicago and combined cohorts are shown in Table 8.

[3] = system: patients with idiopathic pulmonary fibrosis (IPF); experiment: PANTHER-IPF clinical trial cohort: secondary genotype-stratified survival analysis, NAC or PAN versus placebo; format: in vivo, human; details: for Composite Endpoint, %: 10% FVC decline, hospitalization or transplantation; for Treatment-Specific Composite Endpoint Risk, HR / Multivariable Cox interaction model coefficient, therapy term / Multivariable Cox interaction model coefficient, SNP*therapy interaction term: adjusted for age, gender; for Treatment-Specific Composite Endpoint Risk, HR: FVC (% predicted) and DLCO (% predicted); for Multivariable Cox interaction model coefficient, therapy term / Multivariable Cox interaction model coefficient, SNP*therapy interaction term: composite endpoint-free survival, FVC and DLCO; for Progression-Free Survival HR (95% CI) / Hospitalization-Free Survival HR (95% CI): NAC vs placebo
Source text: Single nucleotide polymorphisms (SNPs) within TOLLIP and MUC5B are associated with idiopathic pulmonary fibrosis (IPF) susceptibility and survival. Both genes play critical roles in lung host defense, a process that can be influenced by oxidative stress and modulated by N-acetylcysteine (NAC). Applicants set out to determine whether SNPs within TOLLIP and MUC5B modify the efficacy of NAC therapy in patients with IPF. To achieve this, secondary analysis was completed of the PANTHER-IPF clinical trial (n=154) and an independent replication cohort (n=405) composed of patients from the INSPIRE clinical trial and University of Chicago. SNPs within TOLLIP (rs5743890/rs5743894/rs5743854/rs3750920) and MUC5B ([…]) were genotyped. Multivariable Cox regression with interaction analysis was performed followed by genotype-stratified models for significant interaction SNPs to determine genotype-specific survival associated with NAC therapy. A composite endpoint of death, FVC decline, hospitalization or transplantation was used.
The PANTHER cohort consists of individuals enrolled in the IPFnet randomized clinical trial comparing three treatments: prednisone/azathioprine/N-acetylcysteine (PAN) combination therapy, N-acetylcysteine (NAC) monotherapy and placebo. […] Enrollment resumed for the NAC and placebo arms from January to July 2012, with study completion in 2013. Clinical and genetic data for patients providing informed consent to genetic testing were used to conduct the analysis. Patients were followed for up to 72 weeks after randomization.
as §1
The primary analysis tested whether statistical interaction was present between SNPs of interest and NAC therapy with regard to composite endpoint-free survival, defined as time from trial enrollment to death, ≥10% FVC decline, hospitalization or transplantation. Interaction was formally tested with a multivariable Cox regression model that included the following variables: SNP genotype, NAC therapy, and a SNP*NAC interaction term, age, gender, FVC (% predicted) and DLCO (% predicted). Statistical interaction was considered present when the Wald z-statistic for SNP*NAC interaction term corresponded to a p-value <0.01, which adjusts for multiple testing by Bonferroni correction. Interaction detected by this method was then further explored by constructing genotype-stratified multivariable Cox models to determine genotype-specific endpoint risk associated with NAC therapy. Based on SNP distributions, an additive allelic model was assumed for rs3750920 (TOLLIP) and a dominant model for rs5743890 (TOLLIP), rs5743894 (TOLLIP), rs5743854 (TOLLIP) and rs35705950 (MUC5B). Each model was checked to ensure that the proportional hazards assumption was met.
Of the 341 patients enrolled in the PANTHER trial, 315 self-reported a non-Hispanic white ethnicity (FIG. 2). Of those 315 individuals, 154 consented to genetic testing and were included in the primary analysis. Among genotyped patients, fifty-four patients received placebo therapy and […] patients received NAC therapy. Baseline demographic and clinical characteristics between non-Hispanic white genotyped (n=154) and non-genotyped (n=161) patients stratified by treatment group are shown in Table 1. […]

[4] = system: patients with idiopathic pulmonary fibrosis (IPF); details: trial stopped early; cited from earlier work
[5] = INSPIRE cohort, NAC recipients (n = 29)
[6] = UChicago cohort, NAC recipients (n = 18)
[7] = combined replication cohort, NAC recipients (n = 47)
[8] = PANTHER genotyped patients, NAC arm (n = 60)
[9] = PANTHER non-genotyped patients, NAC arm (n = 61)

Molecule: CC(=O)N[C@@H](CS)C(=O)O [NAC, (2R)-2-acetamido-3-sulfanylpropanoic acid]
- Benefit of therapy in patients with IPF, unselected by genotype [1]: no benefit; also recorded: did not provide benefit; also recorded: ineffective
- Composite Endpoint, % [2, 5]: (48.3) %
- Death, % [2, 5]: (20.7) %
- FVC Decline ≥10%, % [2, 5]: (44.8) %
- Transplant, % [2, 5]: (6.9) %
- Composite Endpoint, % [2, 6]: (72.2) %
- Death, % [2, 6]: (72.2) %
- FVC Decline ≥10%, % [2, 6]: (22.2) %
- Transplant, % [2, 6]: (0) %
- Composite Endpoint, % [2, 7]: (57.5) %
- FVC Decline ≥10%, % [2, 7]: (36.2) %
- Transplant, % [2, 7]: (4.3) %
- Replication cohort multivariate Cox interaction model coefficient, NAC Therapy term ([2]; model with rs3750920 (TOLLIP), adjusted for age, gender): 1.37
- Replication cohort multivariate Cox interaction model coefficient, SNP*NAC interaction term ([2]; model with rs5743894 (TOLLIP), term printed as rs3750920*NAC interaction): −0.40
- Replication cohort multivariate Cox interaction model coefficient, NAC Therapy term ([2]; model with rs5743894 (TOLLIP), adjusted for age, gender): 0.54
- Replication cohort multivariate Cox interaction model coefficient, NAC Therapy term ([2]; model with rs35705950 (MUC5B), adjusted for age, gender): 1.24
- Unadjusted Kaplan-Meier survival among NAC recipients, rs3750920 TT genotype versus CC or CT genotype ([2]; replication cohort, FIG. 3, p=0.03): significantly better overall survival
- Genotype-stratified Composite Endpoint Risk Associated with NAC Therapy, HR ([2]; replication cohort, rs3750920 (TOLLIP) CC, adjusted for age, gender, FVC and DLCO): 3.51
- Genotype-stratified Composite Endpoint Risk Associated with NAC Therapy, HR ([2]; replication cohort, rs3750920 (TOLLIP) CT): 2.27
- Genotype-stratified Composite Endpoint Risk Associated with NAC Therapy, HR ([2]; replication cohort, rs3750920 (TOLLIP) TT): 0.23
- Genotype-stratified Composite Endpoint Risk Associated with NAC Therapy, HR ([2]; replication cohort, rs35705950 (MUC5B) GG): 3.15
- Genotype-stratified Composite Endpoint Risk Associated with NAC Therapy, HR ([2]; replication cohort, rs35705950 (MUC5B) GT/TT): 0.94
- Replication cohort multivariate Cox interaction model coefficient, SNP*NAC interaction term ([2]; rs3750920 (TOLLIP) interaction): −0.86
- Replication cohort multivariate Cox interaction model coefficient, SNP*NAC interaction term ([2]; rs35705950 (MUC5B) interaction): −1.30
- Death, % [3, 8]: (1.7) %
- FVC Decline ≥10%, % [3, 8]: (18.3) %
- Hospitalization, % [3, 8]: (13.3) %
- Transplant, % [3, 8]: (5) %
- Composite Endpoint, % ([3]; PANTHER genotyped patients, NAC arm (n = 60), death): (31.7) %
- Death, % [3, 9]: (4.9) %
- FVC Decline ≥10%, % [3, 9]: (27.9) %
- Hospitalization, % [3, 9]: (14.8) %
- Transplant, % [3, 9]: (1.6) %
- Composite Endpoint, % ([3]; PANTHER non-genotyped patients, NAC arm (n = 61), death): (42.6) %
- Treatment-Specific Composite Endpoint Risk, HR ([3]; genotyped PANTHER patients): 0.92
- Multivariable Cox interaction model coefficient, therapy term ([3]; model with rs3750920 (TOLLIP)): 1.34
- Multivariable Cox interaction model coefficient, therapy term ([3]; model with rs5743890 (TOLLIP)): 0.17
- Multivariable Cox interaction model coefficient, therapy term ([3]; model with rs5743894 (TOLLIP)): 0.45
- Multivariable Cox interaction model coefficient, therapy term ([3]; model with rs35705950 (MUC5B)): 0.91
- Treatment-Specific Composite Endpoint Risk, HR ([3]; non-genotyped PANTHER patients): 1.31
- Progression-Free Survival HR (95% CI) ([3]; rs3750920 (TOLLIP) CC genotype, death, 10% FVC decline or transplant): 1.27 (0.21-7.55)
- Hospitalization-Free Survival HR (95% CI) ([3]; rs3750920 (TOLLIP) CC genotype, death, hospitalization or transplant): 3.74 (0.35-39.80)
- Hospitalization-Free Survival HR (95% CI) ([3]; rs3750920 (TOLLIP) CT genotype): 0.45 (0.10-2.15)
- Progression-Free Survival HR (95% CI) ([3]; rs3750920 (TOLLIP) CT genotype): 0.63 (0.17-2.30)
- Progression-Free Survival HR (95% CI) ([3]; rs3750920 (TOLLIP) TT genotype): 0.09 (0.01-0.76)
- Multivariable Cox interaction model coefficient, SNP*therapy interaction term ([3]; rs3750920 (TOLLIP) interaction): −1.47
- Multivariable Cox interaction model coefficient, SNP*therapy interaction term ([3]; rs5743890 (TOLLIP) interaction): −1.17
- Hospitalization-Free Survival HR (95% CI) ([3]; rs5743894 (TOLLIP) AA genotype): 1.43 (0.44-4.70)
- Progression-Free Survival HR (95% CI) ([3]; rs5743894 (TOLLIP) AA genotype): 1.68 (0.58-4.90)
- Hospitalization-Free Survival HR (95% CI) ([3]; rs5743894 (TOLLIP) AG/GG genotype): 0.21 (0.02-1.99)
- Multivariable Cox interaction model coefficient, SNP*therapy interaction term ([3]; rs5743894 (TOLLIP) interaction): −1.42
- Hospitalization-Free Survival HR (95% CI) ([3]; rs35705950 (MUC5B) GG genotype): 1.25 (0.15-10.30)
- Progression-Free Survival HR (95% CI) ([3]; rs35705950 (MUC5B) GG genotype): 3.72 (0.69-20.16)
- Hospitalization-Free Survival HR (95% CI) ([3]; rs35705950 (MUC5B) GG/TT genotype as printed in Table 7 (text: GT or TT)): 0.49 (0.15-1.58)
- Multivariable Cox interaction model coefficient, SNP*therapy interaction term ([3]; rs35705950 (MUC5B) interaction): −1.40

B1: interferon gamma-1b: study drug of the INSPIRE randomized clinical trial, compared to placebo (protein, UniProt P01579 24-161, looked up)
Interferon gamma: QDPYVKEAENLKKYFNAGHSDVADNGTLFLGILKNWKEESDRKIMQSQIVSFYFKLFKNFKDDQSIQKSVETIKEDMNVKFFNSNKKKRDDFEKLTNYSVTDLNVQRKAIHELIQVMAELSPAAKTGKRKRSQMLFRG
modifications: interferon gamma-1b
notes: study drug of the INSPIRE randomized clinical trial, compared to placebo
- Benefit compared to placebo at interim analysis [4]: no benefit
